Measured values from the RepoRT retention time repository (doi:10.1016/j.jchromb.2020.122105).

Experiments:
Conditions in all cases: stereoisomer not certain
[1] = RP, Waters CORTECS T3, 100 × 2.1 mm, 2.7 µm, 0.2 mL/min, estimated dead time 1.1 min; A: water + 0.1% formic acid, pH 3; B: methanol + 0.1% formic acid, pH 3; gradient (min/%B) 0/0 1/0 6/5 30/100 35/100 35.1/0 40/0
[2] = RP, Waters CORTECS T3, 100 × 2.1 mm, 2.7 µm, 0.1 mL/min, estimated dead time 2.2 min; A: water + 0.1% formic acid, pH 3; B: methanol + 0.1% formic acid, pH 3; gradient (min/%B) 0/0 1/0 6/5 30/100 35/100 35.1/0 40/0
[3] = RP, Waters CORTECS T3, 100 × 2.1 mm, 2.7 µm, 0.15 mL/min, estimated dead time 1.5 min; A: water + 0.1% formic acid, pH 3; B: methanol + 0.1% formic acid, pH 3; gradient (min/%B) 0/0 1/0 6/5 30/100 35/100 35.1/0 40/0
[4] = RP, Waters CORTECS T3, 100 × 2.1 mm, 2.7 µm, 0.3 mL/min, estimated dead time 0.73 min; A: water + 0.1% formic acid, pH 3; B: methanol + 0.1% formic acid, pH 3; gradient (min/%B) 0/0 1/0 6/5 30/100 35/100 35.1/0 40/0
[5] = RP, Waters CORTECS T3, 100 × 2.1 mm, 2.7 µm, 0.3 mL/min, estimated dead time 0.73 min; A: water + 0.1% formic acid, pH 3; B: methanol + 0.1% formic acid, pH 3; gradient (min/%B) 0/0 5/0 25/100 30/100 30.1/0 35/0
[6] = RP, Waters CORTECS T3, 100 × 2.1 mm, 2.7 µm, 0.3 mL/min, estimated dead time 0.73 min; A: water + 0.1% formic acid, pH 3; B: methanol + 0.1% formic acid, pH 3; gradient (min/%B) 0/5 5/5 25/100 30/100 30.1/5 35/5
[7] = HILIC, Merck SeQuant ZIC-HILIC, 150 × 2.1 mm, 5 µm, 0.75 mL/min, estimated dead time 0.44 min; A: water + 0.1% acetic acid + 10 mM ammonium acetate, pH 4; B: 5% water + 95% acetonitrile + 0.1% acetic acid + 10 mM ammonium acetate, pH 4; gradient (min/%B) 0/95 5/95 20/57 25/57 30/95 40/95
[8] = RP, Waters ACQUITY UPLC BEH C18, 100 × 2.1 mm, 1.7 µm, 0.2 mL/min, estimated dead time 1.1 min; A: water + 0.025% formic acid + 20 mM ammonium acetate + 0.055% ammonium hydroxide, pH 7; B: methanol; gradient (min/%B) 0/5 5/5 25/100 30/100 30.1/5 35/5
[9] = RP, Waters CORTECS T3, 100 × 2.1 mm, 2.7 µm, 0.2 mL/min, estimated dead time 1.1 min; A: water + 0.1% formic acid, pH 3; B: methanol + 0.1% formic acid, pH 3; gradient (min/%B) 0/0 1/0 6/5 30/100 35/100 35.1/0 40/0; remark: listed apart in the source
[10] = RP, Waters ACQUITY UPLC BEH C18, 100 × 2.1 mm, 1.7 µm, 0.1 mL/min, estimated dead time 2.2 min; A: water + 0.045% formic acid + 0.11% ammonium hydroxide, pH 7; B: methanol; gradient (min/%B) 0/5 5/5 25/95 25.1/100 35/100 35.1/5 45/5
[11] = RP, Waters CORTECS T3, 100 × 2.1 mm, 2.7 µm, 0.25 mL/min, estimated dead time 0.88 min; A: water + 0.1% formic acid, pH 3; B: methanol + 0.1% formic acid, pH 3; gradient (min/%B) 0/5 5/5 25/95 25.1/100 35/100 35.1/5 45/5
[12] = RP, Waters ACQUITY UPLC BEH C18, 100 × 2.1 mm, 1.7 µm, 0.1 mL/min, estimated dead time 2.2 min; A: water + 0.1% formic acid, pH 3; B: methanol + 0.1% formic acid, pH 3; gradient (min/%B) 0/5 5/5 25/95 25.1/100 35/100 35.1/5 45/5
[13] = RP, Waters CORTECS T3, 100 × 2.1 mm, 2.7 µm, 0.2 mL/min, estimated dead time 1.1 min; A: water + 0.1% formic acid, pH 3; B: methanol + 0.1% formic acid, pH 3; gradient (min/%B) 0/5 5/5 25/95 25.1/100 35/100 35.1/5 45/5
[14] = RP, Waters CORTECS T3, 100 × 2.1 mm, 2.7 µm, 0.3 mL/min, estimated dead time 0.73 min; A: water + 0.1% formic acid, pH 3; B: methanol + 0.1% formic acid, pH 3; gradient (min/%B) 0/0 1/0 6/5 30/100 35/100 35.1/0 40/0; remark: listed apart in the source
[15] = RP, Waters ACQUITY UPLC BEH C18, 100 × 2.1 mm, 1.7 µm, 0.1 mL/min, estimated dead time 2.2 min; A: water + 0.1% formic acid, pH 3; B: methanol + 0.1% formic acid, pH 3; gradient (min/%B) 0/5 5/5 25/95 25.1/100 35/100 35.1/5 45/5; remark: listed apart in the source
[16] = HILIC, Thermo Scientific Accucore HILIC, 100 × 2.1 mm, 2.6 µm, 0.5 mL/min, estimated dead time 0.44 min; A: water + 0.1% formic acid + 10 mM ammonium formate, pH 3; B: 5% water + 95% acetonitrile + 0.1% formic acid + 10 mM ammonium formate, pH 3; gradient (min/%B) 0/95 5/95 20/57 25/57 30/95 40/95
[17] = RP, Waters ACQUITY UPLC BEH C18, 100 × 2.1 mm, 1.7 µm, 0.1 mL/min, estimated dead time 2.2 min; A: water + 0.1% formic acid, pH 3; B: methanol + 0.1% formic acid, pH 3; gradient (min/%B) 0/5 5/5 25/95 25.1/100 35/100 35.1/5 45/5; remark: listed apart in the source

SMILES	LC retention time [1]	LC retention time [2]	LC retention time [3]	LC retention time [4]	LC retention time [5]	LC retention time [6]	LC retention time [7]	LC retention time [8]	LC retention time [9]	LC retention time [10]	LC retention time [11]	LC retention time [12]	LC retention time [13]	LC retention time [14]	LC retention time [15]	LC retention time [16]	LC retention time [17]
CC(=O)N[C@H](Cc1c[nH]c2ccccc12)C(=O)O [N-ACETYL-D-TRYPTOPHAN]	15.7 min	13.9 min	17 min	14.2 min	13.2 min	12.3 min	8.28 min	9.66 min	15.7 min	14.1 min	13.2 min	17.6 min	19.2 min	14.2 min	–	–	–
Nc1nc2nccnc2c(=O)[nH]1 [PTERIN]	4.26 min	–	5.95 min	2.75 min	2.96 min	1.73 min	5.43 min	1.41 min	–	–	2.11 min	4.74 min	8.07 min	3.11 min	2.72 min	3.39 min	–
Cc1cc2nc3c(=O)[nH]c(=O)nc-3n(CC(O)C(O)C(O)CO)c2cc1C (configuration not stated) [RIBOFLAVIN]	14.7 min	13.1 min	15.8 min	13.5 min	12.5 min	11.7 min	–	11.9 min	14.7 min	15.7 min	12.4 min	15.7 min	17.7 min	13.5 min	15.7 min	–	15.7 min
O=c1[nH]c(=O)c2[nH]cnc2[nH]1 [XANTHINE]	3.29 min	–	4.65 min	2.17 min	2.27 min	1.53 min	5.71 min	1.36 min	3.32 min	–	1.85 min	2.82 min	–	2.39 min	2.72 min	1.92 min	2.66 min
O=C(O)c1cc(=O)c2cccc(O)c2[nH]1 [XANTHURENIC ACID]	12 min	10.4 min	13.4 min	10.5 min	10.3 min	8.94 min	9.68 min	1.36 min	12.1 min	–	9.71 min	14 min	15.5 min	10.5 min	13.8 min	7.89 min	13.9 min
